Laboratory results taken from ChEMBL document CHEMBL4330066, “Carbohydrate-naphthalene diimide conjugates as potential antiparasitic drugs: Synthesis, evaluation and structure-activity studies” (Eur J Med Chem, 2019).
Calls of active or inactive are those of the source. The calls are words filed in the database; no cut-off is given here.

Tests used:
Trypanosoma brucei [1] = assay: Stabilization of Trypanosoma brucei EBR1 G-quadruplex DNA up to 30 x 10^-6 M by CD titration assay
Trypanosoma brucei [2] = assay: Stabilization of 5'-FAM /3'-Tamra labelled Trypanosoma brucei EBR1-FT G-quadruplex DNA in presence of 1 x 10^-5 M dsDNA competitior by FRET melting assay relative to control
[3] = Drug localization in nucleus of Trypanosoma brucei at 5 x 10^-6 M after 4 hrs by DAPI staining-based fluorescence confocal microscopy method; assay type: ADME, subcellular; conditions: 5 µM
[4] = Selectivity index, ratio of IC50 for human MRC5 cells to IC50 for Trypanosoma brucei Lister 427, antigenic type MiTat 1.2, clone 221a; assay type: toxicity; conditions: MRC5 cells versus Trypanosoma brucei Lister 427, read-out: Ratio IC50
Trypanosoma brucei [5] = assay: Stabilization of 5'-FAM /3'-Tamra labelled Trypanosoma brucei F21T G-quadruplex DNA at 2 x 10^-6 M by FRET melting assay
Trypanosoma brucei [6] = assay: Stabilization of 5'-FAM /3'-Tamra labelled Trypanosoma brucei F21T G-quadruplex DNA in presence of 3 x […] M dsDNA competitior by FRET melting assay
[7] = Selectivity index, ratio of TC50 for human THP1 cells to IC50 for Leishmania major MHOM/IL/80/Friedlin amastigotes; assay type: toxicity; conditions: THP1 cells versus Leishmania major amastigotes, read-out: Selectivity Index
[8] = Drug localization in kinetoplast of Trypanosoma brucei at 5 x 10^-6 M after 4 hrs by DAPI staining-based fluorescence confocal microscopy method; assay type: ADME, subcellular; conditions: 5 µM
MRC5 = assay: Cytotoxicity against human MRC5 cells assessed as reduction in cell viability after 48 hrs by MTT assay; assay type: cell-based; conditions: MRC5, 48 h
Trypanosoma brucei [9] = assay: Stabilization of 5'-FAM /3'-Tamra labelled Trypanosoma brucei F21T G-quadruplex DNA in presence of 1 x 10^-5 M dsDNA competitior by FRET melting assay
Trypanosoma brucei [10] = assay: Stabilization of 5'-FAM /3'-Tamra labelled Trypanosoma brucei EBR1-FT G-quadruplex DNA at 2 x 10^-6 M by FRET melting assay
Trypanosoma brucei [11] = assay: Binding affinity to Trypanosoma brucei EBR1 G-quadruplex DNA assessed as association constant by fluorescence titration assay
Leishmania major [12] = assay: Leishmaniacidal activity against Leishmania major MHOM/IL/80/Friedlin amastigotes infected in human THP1 cells after 72 hrs by luciferase luminescence assay; assay type: functional, organism-based; conditions: THP-1, 72 h
Quadruplex DNA [13] = assay: Binding affinity to 22AG telomeric G-quadruplex DNA (unknown origin) assessed as association constant by fluorescence titration assay; assay type: nucleic-acid assay
[14] = Cytotoxicity against human THP1 cells; assay type: cell-based; conditions: THP-1 cells, read-out: TC50 (the source's name)
Quadruplex DNA [15] = assay: Stabilization of 22AG telomeric G-quadruplex DNA (unknown origin) assessed as red shift at 8 uM by fluorescence absorption emisssion spectroscopy method; assay type: nucleic-acid assay
Trypanosoma brucei [16] = assay: Trypanocidal activity against Trypanosoma brucei Lister 427, antigenic type MiTat 1.2, clone 221a after 72 hrs by alamarBlue assay; assay type: functional, organism-based; conditions: Lister 427, 72 h
Leishmania major [17] = assay: Leishmaniacidal activity against Leishmania major MHOM/IL/80/Friedlin promastigotes after 72 hrs by MTT assay; assay type: functional, organism-based
[18] = Drug uptake in Trypanosoma brucei assessed as reduction in intracellular fluorescence at 5 x 10^-6 M at 4 to 37 degreeC by flow cytometric analysis; assay type: ADME, cell-based; conditions: 5 µM, TDE = time-dependent effect
[19] = Drug uptake in Trypanosoma brucei at 5 x 10^-6 M at 37 degC incubated for 90 mins by flow cytometric analysis; assay type: ADME; conditions: 1.5 h, 5 µM
Erythrocyte = assay: Hemolytic activity in mouse RBC after 1 hr; assay type: ADME, cell-based
Quadruplex DNA [20] = assay: Stabilization of 22AG telomeric G-quadruplex DNA (unknown origin) assessed as reduction in emission at 8 uM by fluorescence absorption emisssion spectroscopy method; assay type: nucleic-acid assay; set-up: scale not given: the % may be the effect or the level left
[21] = Drug uptake in Trypanosoma brucei assessed as reduction in intracellular fluorescence at 5 x 10^-6 M at 4 degreeC incubated for 90 mins by flow cytometric analysis relative to drug uptake at 37 degC; assay type: ADME, cell-based; conditions: 1.5 h, 5 µM
Trypanosoma brucei [22] = assay: Stabilization of 5'-FAM /3'-Tamra labelled Trypanosoma brucei EBR1-FT G-quadruplex DNA assessed as change in melting temperature at 0.5 x 10^-6 M by FRET melting assay
Trypanosoma brucei [23] = assay: Stabilization of 5'-FAM /3'-Tamra labelled Trypanosoma brucei EBR1-FT G-quadruplex DNA assessed as impeding of completing melting of DNA at 2 x 10^-6 M by FRET melting assay
Trypanosoma brucei [24] = assay: Stabilization of 5'-FAM /3'-Tamra labelled Trypanosoma brucei F21T G-quadruplex DNA assessed as change in melting temperature at 5 x 10^-7 M by FRET melting assay
Trypanosoma brucei [25] = assay: Stabilization of 5'-FAM /3'-Tamra labelled Trypanosoma brucei EBR1-FT G-quadruplex DNA assessed as change in melting temperature at 5 x 10^-7 M by FRET melting assay
Quadruplex DNA [26] = assay: Stabilization of 22AG telomeric G-quadruplex DNA (unknown origin) assessed as reduction in emission at 8 uM by fluorescence absorption emisssion spectroscopy method relative to control; assay type: nucleic-acid assay; set-up: scale not given: the % may be the effect or the level left

Row | Structure (SMILES) | Activity (Trypanosoma brucei [1]) | Activity (Trypanosoma brucei [2]) | Drug uptake [3] | selectivity ratio [4] | Activity (Trypanosoma brucei [5]) | Activity (Trypanosoma brucei [6]) | selectivity ratio [7] | Drug uptake [8] | IC50 (MRC5) | Activity (Trypanosoma brucei [9]) | Activity (Trypanosoma brucei [10]) | Ka (Trypanosoma brucei [11]) | IC50 (Leishmania major [12]) | Ka (Quadruplex DNA [13]) | CC50 [14] | Activity (Quadruplex DNA [15]) | IC50 (Trypanosoma brucei [16]) | IC50 (Leishmania major [17]) | Activity (Erythrocyte) | also measured
1 | CN(C)CCCN1C(=O)c2ccc3c4c(c(NCCCn5cc(COCCOCCOCCO[C@@H]6O[C@H](CO)[C@@H](O)[C@H](O)[C@H]6O)nn5)cc(c24)C1=O)C(=O)N(CCCN(C)C)C3=O | Active | Active | Active | 1.6 | Active | inactive | 3.9 | Active | 730 nM | Active | Active | 6.9 ×10⁵ /M | 480 nM | 4.8 ×10⁵ /M | 1860 nM | Active | 440 nM | 480 nM | – | –
2 | CN(C)CCCN1C(=O)c2ccc3c4c(c(NCCCn5cc(CCO[C@@H]6O[C@H](CO)[C@@H](O)[C@H](O)[C@H]6O)nn5)cc(c24)C1=O)C(=O)N(CCCN(C)C)C3=O | Active | Active | Active | 7.5 | Active | inactive | 3 | Active | 450 nM | Active | Active | 1.2 ×10⁶ /M | 720 nM | 9.2 ×10⁵ /M | 2180 nM | 10 nm | 60 nM | 70 nM | Non-Toxic | Drug uptake [18]: Tde; Drug uptake [19]: Active; Activity (Quadruplex DNA [20]): 10%; Drug uptake [21]: 36%
3 | CN(C)CCCc1cc2c3c(c(NCCCn4cc(CCO[C@@H]5O[C@H](CO)[C@@H](O)[C@H](O)[C@H]5O)nn4)cc4c3c1C(=O)N(CCCN(C)C)C4=O)C(=O)N(CCCN(C)C)C2=O | Active | inactive | Active | 30.2 | inactive | inactive | – | Active | 7250 nM | Active | – | 1 ×10⁷ /M | – | 4.4 ×10⁶ /M | – | – | 240 nM | 9770 nM | Non-Toxic | ΔTm (Trypanosoma brucei [22]): 24 °C; Activity (Trypanosoma brucei [23]): Active; ΔTm (Trypanosoma brucei [24]): 22.1 °C; ΔTm (Trypanosoma brucei [25]): 11.5 °C; Activity (Quadruplex DNA [26]): 40%
4 | CN(C)CCCN1C(=O)c2ccc3c4c(c(NCCCn5cc(COCCOCCOCCO[C@@H]6O[C@H](CO)[C@@H](O[C@@H]7O[C@H](CO)[C@H](O)[C@H](O)[C@H]7O)[C@H](O)[C@H]6O)nn5)cc(c24)C1=O)C(=O)N(CCCN(C)C)C3=O | Active | Active | Active | 6 | Active | inactive | 10.8 | Active | 240 nM | Active | Active | 1.1 ×10⁶ /M | 530 nM | 8.4 ×10⁵ /M | 5710 nM | Active | 40 nM | 170 nM | – | –
